Key:
[1] = Resistance to reduction by DTT, RP-HPLC; type: physicochemical; conditions: 10 mM DTT; HPLC vs non-reduced peptide
In short: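 Peptide (12.5 μg from a 2 mg/ml stock, or 0.015 mM final in PBS) was held 30 min at room temperature with or without 10 mM DTT. Reduced and non-reduced forms were compared by C-18 RP-HPLC using a 5–45% acetonitrile/0.1% TFA gradient over 10 min, with detection at 214 and 280 nm.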

TEAD protein = assay: Binding of surface-displayed (SDGF) peptide to biotinylated target protein after reducing agent, flow cytometry; type: cell-based; conditions: HEK-293 cells displaying peptide, 20 nM biotinylated target protein
Description: Designed or engineered peptides of this disclosure were also tested to evaluate if the peptides' binding activity to their target protein (e.g., TEAD protein) was affected by exposure to reducing conditions. HEK-293T suspension cells were transfected with a surface display GFP FasL(SDGF) vector comprising SEQ ID NO: 39 (SDGF-SEQ ID NO: 39) or SDGF vector comprising SEQ ID NO: 43 (SDGF-SEQ ID NO: 43) construct. Cultures were grown for two days, followed by incubation in 10 mM GSH or 10 mM DTT. Finally, cells were stained with biotinylated-target protein to evaluate the binding activity of a peptide to the target protein. FIG. 15 illustrates the stability of peptides of SEQ ID NO: 39 and SEQ ID NO: 43 after exposure to a reducing agent. Each peptide was expressed on a cell surface and tested for binding to a target protein after cells expressing SDGF-SEQ ID NO: 43 or SEQ ID NO: 39 were exposed to a reducing agent. FIG. 15A illustrates a flow cytometry plot showing binding of HEK-293 suspension cells transfected with SDGF-SEQ ID NO: 39 (GFP) incubated for 5 minutes in PBS, 10 mM DTT, or 10 mM reduced glutathione (GSH) before staining with 20 nM biotinylated target protein and 20 nM AF647-streptavidin. FIG. 15B illustrates a flow cytometry plot showing binding of HEK-293 suspension cells transfected with SDGF-SEQ ID NO: 43 (GFP) incubated for 5 minutes in PBS, 10 mM DTT, or 10 mM reduced glutathione (GSH) before staining with 20 nM biotinylated target protein and 20 nM AF647-streptavidin. FIG. 15C illustrates quantification of the AF647 mean fluorescence intensity (MFI) of cells falling within the “slice” gate shown in FIG. 15A and FIG. 15B. […] In other words, peptides of SEQ ID NO: 39 and SEQ ID NO: 43 were resistant to reduction by GSH.

GSPDEYIERAKECCKKQDIQCCLRIFDESKDPNVMLICLFCW [SEQ ID NO: 43]
resistance to reduction by DTT (in words) [1]: partially resistant
binding to target protein after DTT treatment (TEAD protein; 5 minutes in 10 mM DTT): no loss in binding
binding to target protein after GSH treatment (TEAD protein; 5 minutes in 10 mM GSH): no loss in binding

Source: US20190375786A1, “STABLE PEPTIDES AND METHODS OF USE THEREOF” (Fred Hutchinson Cancer Research Center, priority 2016, published 2019)
